According to patent publication US20030236218A1, “Aryl phosphate derivatives of d4T with selective activity against adenovirus and HIV” (priority 2002, published 2003):
Where two headings read alike, the source gives them in different places.

How the values were obtained:
[1] = Pharmacokinetic studies in mice, intravenous administration; assay type: in vivo, Balb/c mice; conditions: for AUC: read-out: AUC (converted); for Vd: read-out: Vss; for Tmax: read-out: tmax (converted)
Method: Female Balb/c mice (6-8 weeks old) from Taconic (Germantown, N.Y.) were housed in a controlled environment (12-hours of light/12-hours of dark, 22±1° C., 60±10% relative humidity), which is fully accredited by the USDA. All rodents were housed in microisolator cages (Lab Products, Inc., NJ) containing autoclaved bedding. The mice were allowed free access to autoclaved pellet food and tap water throughout the study.
Blood samples (˜500 μL) were obtained from the ocular venous plexus by retro-orbital venipuncture at 0, 2, 5, 10, 15, 30, 45, 60, 120, 240 and 360 minutes after intravenous injection.
All collected blood samples were heparinized and centrifuged at 7000×g for 5 minutes to separate the plasma fraction from the whole blood. The plasma samples were then processed immediately using the extraction procedure described above.
Pharmacokinetic modeling and parameter calculations were carried out using the WinNonlin Professional Version 3.0 (Pharsight, Inc., Mountain, Calif.) pharmacokinetics software (Chen et al., Pharm. Res., 16, 1003 (1999); Chen et al., Pharm. Res., 16, 117 (1999); Chen et al., J. Clin. Pharmacol., 39, 1248 (1999); Uckun et al., Clin. Cancer Res., 5, 2954 (1999); and Uckun et al., J. Pharmacol. Exp. Ther., 291, 1301 (1999)). An appropriate model was chosen on the basis of the lowest sum of weighted squared residuals, the lowest Schwartz Criterion (SC), the lowest Akaike's Information Criterion (AIC) value, the lowest standard errors of the fitted parameters, and the dispersion of the residuals. The elimination half-life was estimated by linear regression analysis of the terminal phase of the plasma concentration-time profile. The area under the concentration-time curve (AUC) was calculated according to the linear trapezoidal rule between the first sampling time (0 hours) and the last sampling time plus C/k, where C is the concentration of the last sampling and k is the elimination rate constant. The systemic clearance (CL) was determined by dividing the dose by the AUC. The metabolic clearance of the parent drug, the formation clearance of the metabolite, the clearance elimination of the metabolite, and the distribution clearance of the metabolite were estimated by simultaneous fitting of the concentration of parent drug and metabolites as a function of time curve to pharmacokinetic models (see FIGS. 7A & 8A) specified as a system of differential equations (Gabrielsson & Weiner, Phamacokinetic/Phamacodynamic Data Analysis: Concepts and Applications, Swedish Pharmaceutical Press (1997)).

HIV-1 strain HTLV-IIIB = experiment: In vitro anti-HIV-1 activity, p24 antigen assay in PBMNC; assay type: cell-based; conditions: Human immunodeficiency virus 1, HIV-1, HTLV-IIIB, day 7
Excerpt: (§1) Virus stocks. The HIV-1 strain used in this study was HTLV-IIIB (Uckun et al., 1998 Antimicro. Agents and Chemother., 42:383-388). The non-HIV viruses included in the present study were the gancyclovir-sensitive cytomegalovirus (CMV) strain AD169 (ATCC VR-538); acyclovir-sensitive herpes simplex virus (HSV) Type I strain HF (ATCC VR-260); acyclovir-sensitive HSV Type II strain G (ATCC VR-734); adenovirus strain Type 5, strain adenoid 75 (ATCC VR-5); enterovirus strain, ECHO 30, strain Bastianni (ATCC VR-322); and respiratory syncytial virus (RSV), strain Long (ATCC VR-26).
In vitro assays of anti-HIV-1 activity. Normal human peripheral blood mononuclear cells (PBMNC) from HIV-negative donors were cultured 72 hours in RPMI 1640 supplemented with 20% (v/v) heat-inactivated fetal bovine serum (FBS), 3% interleukin-2, 2 mM L-glutamine, 25 mM HEPES, 2 g/L NaHCO3, 50 Tg/mL gentamicin, and 4 Tg/mL phytohemagglutinin prior to exposure to HIV-1 at a multiplicity of infection (MOI) of 0.1 during a 1 hour adsorption period at 37° C. in a humidified 5% CO2 atmosphere. Subsequently, cells were cultured in 96-well microtiter plates (100 TL, 2×10^6 cells/mL) in the presence of various concentrations of compounds 113 or 609. Aliquots of culture supernatants were removed from the wells on the seventh day after infection for p24 antigen assays, as previously described. […] Percent viral inhibition was calculated by comparing the p24 values from untreated infected cells (i.e., virus controls).
Statistical analysis. […] An IC50 value was calculated from each set of triplicate wells using nonlinear regression modeling of the exponential form of the linearized equation (Statview, SAS Institute, Inc., Cary, N.C.). Hydrolysis rates were determined by fitting single exponential decay equations to the disappearance of the compound in alkali conditions (all R^2 values greater than 0.85). […]

[2] = test system: cytomegalovirus (CMV) strain AD169; experiment: CMV plaque formation assay in SF cells; assay type: cell-based; conditions: Human betaherpesvirus 5
Excerpt: as §1
(§2) Plaque formation assays. Plaque assays were used to examine the activity of the compounds against non-HIV viruses. The skin fibroblast cell line SF (ATCC CRL-2097) was used as a target for AD169, Adenovirus Type 5. […] cell line (ATCC CCL-81) was used as a target for HSV HF and G. The HEP-2 cell line (ATCC CCL-23) was used as a target for the RSV strain Long. These cell lines were cultured at 1×10^5 cells/well in 24-well (all but ECHO 30-infected SF) or 6-well (ECHO 30-infected SF) tissue culture plates with 0.9% methylcellulose or 0.4% SeaPlaque agarose semisolid support. […] Percent inhibition of plaque formation was calculated by comparing the plaque numbers from the test substance-treated infected cells with the plaque numbers from untreated infected cells (i.e., virus controls). The IC50 values were determined using the Statview statistics program (SAS Institute, Inc., Cary, N.C.).
(§3) Statistical analysis. […] An IC50 value was calculated from each set of triplicate wells using nonlinear regression modeling of the exponential form of the linearized equation (Statview, SAS Institute, Inc., Cary, N.C.). […]
(§4) The skin fibroblast cell line SF (ATCC CRL-2097) was used as a target for AD169, Adenovirus Type 5, and ECHO 30; the VERO cell line (ATCC CCL-81) was used as a target for HF and G; and the HEP-2 cell line (ATCC CCL-23) was used as target for the RSV strain Long. Results are expressed as the average IC50 values in μM. […]

[3] = test system: respiratory syncytial virus (RSV), strain Long; experiment: RSV plaque formation assay in HEP-2 cells; assay type: cell-based; conditions: human respiratory syncytial virus
Excerpt: as §1, §2, §3, §4

[4] = Octanol/water partition coefficient, shake flask method; assay type: physicochemical; conditions: 4 hours at room temperature, read-out: Oct/Water (log P)
Method: HPLC purification was achieved using a reverse-phase Lichrospher column (250×4 mm, Hewlett-Packard, RP-18, Cat. #79925) and an isocratic flow (1 ml/minute) consisting of water (70%) and acetonitrile (30%). Melting points were determined using a Melt John's apparatus and are uncorrected. Column chromatography was performed using silica gel obtained from Baker Company. The octanol/water partition coefficient was determined by the shake flask method. The phosphoramidate analogs were added to 2 ml of water and 2 ml of octanol in a glass vial. The mixture was shaken for 4 hours at room temperature. The two phases were carefully separated and filtered through a Millipore filter and analyzed by HPLC. The partition coefficient was calculated using the ratio of the area under the curve for octanol and water, respectively.

[5] = after i.v. compound 113, model fit, C.V. of modeling in parentheses
[6] = female, Balb/c, mouse, in vivo, iv
[7] = female, Balb/c, mouse, in vivo, iv, 40 mg/kg, after i.v. 40 mg/kg d4T, estimate from composite curve of pooled data
[8] = female, Balb/c, mouse, in vivo, iv, 40 mg/kg, after i.v. 40 mg/kg d4T, mean ± S.E.M
[9] = female, Balb/c, mouse, in vivo, iv, 75 mg/kg, plasma analyte = label, after i.v. 75 mg/kg Ala-d4T-MP, estimate from composite curve of pooled data
[10] = female, Balb/c, mouse, in vivo, iv, 75 mg/kg, plasma analyte = label, after i.v. 75 mg/kg Ala-d4T-MP, mean ± S.E.M
[11] = female, Balb/c, mouse, in vivo, iv, 100 mg/kg, plasma analyte = label, after i.v. 100 mg/kg compound 113, estimate from composite curve of pooled data
[12] = female, Balb/c, mouse, in vivo, iv, 100 mg/kg, plasma analyte = label, after i.v. 100 mg/kg compound 113, mean ± S.E.M

## Cc1cn([C@H]2C=C[C@@H](CO)O2)c(=O)[nH]c1=O [d4T, 2′, 3′-Didehydro-3′-deoxy thymidine, reference compound]
[1]; after i.v. Ala-d4T-MP, model fit, C.V. of modeling in parentheses
  CLme (elimination of d4T derived from Ala-d4T-MP): 88.4 (13.0%) ml/min/kg
[1]; [5]
  CLme2 (elimination of d4T from the body): 47.1 (74.1%) ml/min/kg
[1]; [6]
  CLme2 (elimination of d4T from the body): 62.0 mL/min/kg
  CLme (elimination of d4T derived from Ala-d4T-MP): 88.4 mL/min/kg
  fraction of parent converted to the metabolite: 15%
  fraction of parent converted to the metabolite (fm): 24%
[1]; [7]
  Cmax: 280 µM
  clearance: 15 mL/min/kg
  half-life: 30.3 min
  AUC: 204 µM·h
  Vd: 0.658 L/kg
[1]; [8]
  Cmax: 319 µM
  clearance: 15.2 mL/min/kg
  half-life: 26.6 min
  Vd: 0.582 L/kg
[1]; [9]
  Cmax: 35.2 µM
  half-life: 34 min
  AUC: 31.5 µM·h
  Tmax: 4.4 min
[1]; [10]
  Cmax: 35.9 µM
  half-life: 32.4 min
  AUC: 30.3 µM·h
  Tmax: 5 min
[1]; [11]
  Cmax: 15.7 µM
  half-life: 115 min
  AUC: 48.6 µM·h
  Tmax: 18.7 min
[1]; [12]
  half-life: 116 min
  AUC: 47.6 µM·h
  Tmax: 17.4 min
[1]; female, Balb/c, mouse, plasma, iv, after i.v. 40 mg/kg d4T, mean ± S.E.M
  AUC: 203 µM·h
HIV-1 strain HTLV-IIIB
  IC50: 0.023 ± 0.008 µM
[2]
  IC50: > 100 µM
[3]; RSV, Strain Long, HEP-2 cells, plaque assay, read-out: IC50
  IC50: > 100 µM
[4]; octanol/water
  logP at 4 h: -0.59

## COC(=O)C(C)NP(=O)(OC[C@@H]1C=C[C@H](n2cc(C)c(=O)[nH]c2=O)O1)Oc1ccc(Br)cc1 (stereo partly drawn) [Compound 113, 5′-[4-Bromophenyl methoxylaninylphosphate]-2′, 3′-didehydro-3′-deoxy thymidine]
[1]; [5]
  CLm1 (metabolic clearance of compound 113 / formation clearance of Ala-d4T-MP): 83.9 mL/min/kg
  CLm2 (metabolic clearance of compound 113 / formation clearance of d4T): 87.4 mL/min/kg
[1]; [11]
  AUC: 19 µM·h
  Vd: 0.82 L/kg
[1]; [12]
  Cmax: 212 µM
  clearance: 174 mL/min/kg
  half-life: 3.6 min
  AUC: 17.9 µM·h
  Vd: 0.92 L/kg
HIV-1 strain HTLV-IIIB
  IC50: 0.001 µM
[2]
  IC50: > 100 µM
[3]; HEp-2
  IC50: > 100 µM
[4]
  logP at 4 h: 1.21
